Data: PMC12454493, “Insight on novel sulfamoylphenyl pyrazole derivatives as anticancer carbonic anhydrase inhibitors” (Molecular Diversity, 2024)
Several values for one entry are separate records, joined by “and”; a condition that tells them apart may be missing. Equal values may be shown once.

What was measured:
hCA XII = hCA XII (Homo sapiens, UniProt O43570); assay: CA inhibitory activity, spectrophotometric p-NPA assay; type: biochemical; conditions: p-NPA substrate, pH 7.5, 25 °C, triplicate; read-out: IC50 (µM) ± SD hCA XII
RPMI-8226 = assay: NCI-60 one-dose SRB screen (Leukemia); type: cell-based; conditions: Homo sapiens, single dose 10 µM, 48 h, read-out: Growth inhibition percent (GI %)
MOLT-4 = assay: NCI-60 one-dose SRB screen (Leukemia); type: cell-based; conditions: Homo sapiens, single dose 10 µM, 48 h, read-out: Growth inhibition percent (GI %)
SR = assay: NCI-60 one-dose SRB screen (Leukemia); type: cell-based; conditions: Homo sapiens, single dose 10 µM, 48 h, read-out: Growth inhibition percent (GI %)
K-562 = assay: NCI-60 one-dose SRB screen (Leukemia); type: cell-based; conditions: Homo sapiens, K562, single dose 10 µM, 48 h, read-out: Growth inhibition percent (GI %)
CCRF-CEM = assay: NCI-60 one-dose SRB screen (Leukemia); type: cell-based; conditions: Homo sapiens, single dose 10 µM, 48 h, read-out: Growth inhibition percent (GI %)
HL-60(TB) = assay: NCI-60 one-dose SRB screen (Leukemia); type: cell-based; conditions: Homo sapiens, single dose 10 µM, 48 h, read-out: Growth inhibition percent (GI %)
SK-MEL-5 = assay: NCI-60 one-dose SRB screen (Melanoma); type: cell-based; conditions: Homo sapiens, single dose 10 µM, 48 h, read-out: Growth inhibition percent (GI %)
UACC-257 = assay: NCI-60 one-dose SRB screen (Melanoma); type: cell-based; conditions: Homo sapiens, single dose 10 µM, 48 h, read-out: Growth inhibition percent (GI %)
LOX IMVI = assay: NCI-60 one-dose SRB screen (Melanoma); type: cell-based; conditions: Homo sapiens, single dose 10 µM, 48 h, read-out: Growth inhibition percent (GI %)
SK-MEL-28 = assay: NCI-60 one-dose SRB screen (Melanoma); type: cell-based; conditions: Homo sapiens, single dose 10 µM, 48 h, read-out: Growth inhibition percent (GI %)
M14 = assay: NCI-60 one-dose SRB screen (Melanoma); type: cell-based; conditions: Homo sapiens, single dose 10 µM, 48 h, read-out: Growth inhibition percent (GI %)
MALME-3M = assay: NCI-60 one-dose SRB screen (Melanoma); type: cell-based; conditions: Homo sapiens, single dose 10 µM, 48 h, read-out: Growth inhibition percent (GI %)
MDA-MB-435 = assay: NCI-60 one-dose SRB screen (Melanoma); type: cell-based; conditions: Homo sapiens, single dose 10 µM, 48 h, read-out: Growth inhibition percent (GI %)
UACC-62 = assay: NCI-60 one-dose SRB screen (Melanoma); type: cell-based; conditions: Homo sapiens, single dose 10 µM, 48 h, read-out: Growth inhibition percent (GI %)
SK-MEL-2 = assay: NCI-60 one-dose SRB screen (Melanoma); type: cell-based; conditions: Homo sapiens, single dose 10 µM, 48 h, read-out: Growth inhibition percent (GI %)
SF-539 = assay: NCI-60 one-dose SRB screen (CNS Cancer); type: cell-based; conditions: Homo sapiens, single dose 10 µM, 48 h, read-out: Growth inhibition percent (GI %)
SF-295 = assay: NCI-60 one-dose SRB screen (CNS Cancer); type: cell-based; conditions: Homo sapiens, single dose 10 µM, 48 h, read-out: Growth inhibition percent (GI %)
U251 = assay: NCI-60 one-dose SRB screen (CNS Cancer); type: cell-based; conditions: Homo sapiens, U-251, single dose 10 µM, 48 h, read-out: Growth inhibition percent (GI %)
SNB-19 = assay: NCI-60 one-dose SRB screen (CNS Cancer); type: cell-based; conditions: Homo sapiens, single dose 10 µM, 48 h, read-out: Growth inhibition percent (GI %)
SNB-75 = assay: NCI-60 one-dose SRB screen (CNS Cancer); type: cell-based; conditions: Homo sapiens, single dose 10 µM, 48 h, read-out: Growth inhibition percent (GI %)
SF-268 = assay: NCI-60 one-dose SRB screen (CNS Cancer); type: cell-based; conditions: Homo sapiens, single dose 10 µM, 48 h, read-out: Growth inhibition percent (GI %)
OVCAR-3 = assay: NCI-60 one-dose SRB screen (Ovarian cancer); type: cell-based; conditions: Homo sapiens, single dose 10 µM, 48 h, read-out: Growth inhibition percent (GI %)
NCI/ADR-RES = assay: NCI-60 one-dose SRB screen (Ovarian cancer); type: cell-based; conditions: Homo sapiens, single dose 10 µM, 48 h, read-out: Growth inhibition percent (GI %)
SK-OV-3 = assay: NCI-60 one-dose SRB screen (Ovarian cancer); type: cell-based; conditions: Homo sapiens, single dose 10 µM, 48 h, read-out: Growth inhibition percent (GI %)
OVCAR-4 = assay: NCI-60 one-dose SRB screen (Ovarian cancer); type: cell-based; conditions: Homo sapiens, single dose 10 µM, 48 h, read-out: Growth inhibition percent (GI %)
IGROV1 = assay: NCI-60 one-dose SRB screen (Ovarian cancer); type: cell-based; conditions: Homo sapiens, IGROV-1, single dose 10 µM, 48 h, read-out: Growth inhibition percent (GI %)
OVCAR-8 = assay: NCI-60 one-dose SRB screen (Ovarian cancer); type: cell-based; conditions: Homo sapiens, single dose 10 µM, 48 h, read-out: Growth inhibition percent (GI %)
OVCAR-5 = assay: NCI-60 one-dose SRB screen (Ovarian cancer); type: cell-based; conditions: Homo sapiens, single dose 10 µM, 48 h, read-out: Growth inhibition percent (GI %)
NCI-H460 = assay: NCI-60 one-dose SRB screen (Non-Small Cell Lung Cancer); type: cell-based; conditions: Homo sapiens, single dose 10 µM, 48 h, read-out: Growth inhibition percent (GI %)
NCI-H23 = assay: as above; type: cell-based; conditions: Homo sapiens, single dose 10 µM, 48 h, read-out: Growth inhibition percent (GI %)
NCI-H322M = assay: as above; type: cell-based; conditions: Homo sapiens, single dose 10 µM, 48 h, read-out: Growth inhibition percent (GI %)
A549/ATCC = assay: as above; type: cell-based; conditions: Homo sapiens, single dose 10 µM, 48 h, read-out: Growth inhibition percent (GI %)
NCI-H522 = assay: as above; type: cell-based; conditions: Homo sapiens, single dose 10 µM, 48 h, read-out: Growth inhibition percent (GI %)
EKVX = assay: as above; type: cell-based; conditions: Homo sapiens, single dose 10 µM, 48 h, read-out: Growth inhibition percent (GI %)
NCI-H226 = assay: as above; type: cell-based; conditions: Homo sapiens, single dose 10 µM, 48 h, read-out: Growth inhibition percent (GI %)
HOP-62 = assay: as above; type: cell-based; conditions: Homo sapiens, single dose 10 µM, 48 h, read-out: Growth inhibition percent (GI %)
COLO 205 = assay: NCI-60 one-dose SRB screen (Colon Cancer); type: cell-based; conditions: Homo sapiens, single dose 10 µM, 48 h, read-out: Growth inhibition percent (GI %)
HCT-15 = assay: NCI-60 one-dose SRB screen (Colon Cancer); type: cell-based; conditions: Homo sapiens, single dose 10 µM, 48 h, read-out: Growth inhibition percent (GI %)
HCT-116 = assay: NCI-60 one-dose SRB screen (Colon Cancer); type: cell-based; conditions: Homo sapiens, single dose 10 µM, 48 h, read-out: Growth inhibition percent (GI %)
KM12 = assay: NCI-60 one-dose SRB screen (Colon Cancer); type: cell-based; conditions: Homo sapiens, single dose 10 µM, 48 h, read-out: Growth inhibition percent (GI %)
HCC-2998 = assay: NCI-60 one-dose SRB screen (Colon Cancer); type: cell-based; conditions: Homo sapiens, single dose 10 µM, 48 h, read-out: Growth inhibition percent (GI %)
HT29 = assay: NCI-60 one-dose SRB screen (Colon Cancer); type: cell-based; conditions: Homo sapiens, HT-29, single dose 10 µM, 48 h, read-out: Growth inhibition percent (GI %)
SW-620 = assay: NCI-60 one-dose SRB screen (Colon Cancer); type: cell-based; conditions: Homo sapiens, single dose 10 µM, 48 h, read-out: Growth inhibition percent (GI %)
hCA IX = hCA IX (Homo sapiens, UniProt Q16790); assay: CA inhibitory activity, spectrophotometric p-NPA assay; type: biochemical; conditions: p-NPA substrate, pH 7.5, 25 °C, triplicate; read-out: IC50 (µM) ± SD hCA IX

Chain of hCA XII (O43570 25-354): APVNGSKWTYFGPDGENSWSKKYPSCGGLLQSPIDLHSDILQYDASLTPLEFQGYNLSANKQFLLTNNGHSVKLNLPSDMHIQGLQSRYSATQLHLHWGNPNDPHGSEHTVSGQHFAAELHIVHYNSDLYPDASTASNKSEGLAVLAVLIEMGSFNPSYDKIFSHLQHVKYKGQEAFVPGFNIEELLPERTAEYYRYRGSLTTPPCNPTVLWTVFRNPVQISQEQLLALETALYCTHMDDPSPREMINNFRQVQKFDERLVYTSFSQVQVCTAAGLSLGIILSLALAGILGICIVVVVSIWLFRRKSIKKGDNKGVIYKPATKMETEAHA

Compound: CS(=O)(=O)c1ccc(-c2nn(-c3ccc(S(N)(=O)=O)cc3)cc2C(=O)NNC(N)=S)cc1 [Compound 9e, 2-[3-(4-(Methylsulfonyl)phenyl)-1-(4-sulfamoylphenyl)-1H-pyrazole-4-carbonyl] hydrazine-1-carbothioamide]
- IC50 (hCA XII): 0.929 ± 0.035 µM
- inhibition at 10 µM (RPMI-8226): < 5%
- inhibition at 10 µM (MOLT-4): < 5%
- inhibition at 10 µM (SR): < 5%
- inhibition at 10 µM (K-562): < 5%
- inhibition at 10 µM (CCRF-CEM): < 5%
- inhibition at 10 µM (HL-60(TB)): < 5%
- inhibition at 10 µM (SK-MEL-5): < 5%
- inhibition at 10 µM (UACC-257): 7%
- inhibition at 10 µM (LOX IMVI): < 5%
- inhibition at 10 µM (SK-MEL-28): < 5%
- inhibition at 10 µM (M14): < 5%
- inhibition at 10 µM (MALME-3M): < 5%
- inhibition at 10 µM (MDA-MB-435): < 5%
- inhibition at 10 µM (UACC-62): 7.82%
- inhibition at 10 µM (SK-MEL-2): < 5%
- inhibition at 10 µM (SF-539): < 5%
- inhibition at 10 µM (SF-295): < 5%
- inhibition at 10 µM (U251): < 5%
- inhibition at 10 µM (SNB-19): < 5%
- inhibition at 10 µM (SNB-75): 15.9%
- inhibition at 10 µM (SF-268): < 5%
- inhibition at 10 µM (OVCAR-3): < 5%
- inhibition at 10 µM (NCI/ADR-RES): < 5%
- inhibition at 10 µM (SK-OV-3): < 5%
- inhibition at 10 µM (OVCAR-4): < 5%
- inhibition at 10 µM (IGROV1): < 5%
- inhibition at 10 µM (OVCAR-8): < 5%
- inhibition at 10 µM (OVCAR-5): < 5%
- melting point: 261 to 262 °C
- inhibition at 10 µM (NCI-H460): < 5%
- inhibition at 10 µM (NCI-H23): < 5%
- inhibition at 10 µM (NCI-H322M): < 5%
- inhibition at 10 µM (A549/ATCC): < 5%
- inhibition at 10 µM (NCI-H522): 12.3%
- inhibition at 10 µM (EKVX): < 5%
- inhibition at 10 µM (NCI-H226): 6.39%
- inhibition at 10 µM (HOP-62): < 5%
- inhibition at 10 µM (COLO 205): < 5%
- inhibition at 10 µM (HCT-15): < 5%
- inhibition at 10 µM (HCT-116): < 5%
- inhibition at 10 µM (KM12): < 5%
- inhibition at 10 µM (HCC-2998): < 5%
- inhibition at 10 µM (HT29): < 5%
- inhibition at 10 µM (SW-620): < 5%

Compound: Cc1ccc(-c2nn(-c3ccc(S(N)(=O)=O)cc3)cc2-c2n[nH]c(=S)[nH]2)cc1 [Compound 11, 4-[4-(5-Mercapto-1H-1,2,4-triazol-3-yl)-3-(p-tolyl)-1H-pyrazol-1-yl] benzenesulfonamide]
- IC50 (hCA XII): 0.33 µM and 0.332 µM
- inhibition at 10 µM (RPMI-8226): < 5%
- inhibition at 10 µM (MOLT-4): 21.1%
- inhibition at 10 µM (SR): 15.8%
- inhibition at 10 µM (K-562): < 5%
- inhibition at 10 µM (CCRF-CEM): < 5%
- inhibition at 10 µM (HL-60(TB)): < 5%
- inhibition at 10 µM (SK-MEL-5): < 5%
- inhibition at 10 µM (UACC-257): < 5%
- inhibition at 10 µM (LOX IMVI): 13.5%
- inhibition at 10 µM (SK-MEL-28): < 5%
- inhibition at 10 µM (M14): < 5%
- inhibition at 10 µM (MALME-3M): < 5%
- inhibition at 10 µM (MDA-MB-435): < 5%
- inhibition at 10 µM (UACC-62): 12.9%
- inhibition at 10 µM (SK-MEL-2): < 5%
- inhibition at 10 µM (SF-539): 8.18%
- inhibition at 10 µM (SF-295): 9.95%
- inhibition at 10 µM (U251): 5.33%
- inhibition at 10 µM (SNB-19): 13%
- inhibition at 10 µM (SNB-75): 23.9%
- inhibition at 10 µM (SF-268): 9.56%
- inhibition at 10 µM (OVCAR-3): 11.4%
- inhibition at 10 µM (NCI/ADR-RES): < 5%
- inhibition at 10 µM (SK-OV-3): < 5%
- inhibition at 10 µM (OVCAR-4): 10.1%
- inhibition at 10 µM (IGROV1): < 5%
- inhibition at 10 µM (OVCAR-8): < 5%
- inhibition at 10 µM (OVCAR-5): < 5%
- melting point: 255 to 257 °C
- inhibition at 10 µM (NCI-H460): < 5%
- inhibition at 10 µM (NCI-H23): < 5%
- inhibition at 10 µM (NCI-H322M): < 5%
- inhibition at 10 µM (A549/ATCC): < 5%
- inhibition at 10 µM (NCI-H522): < 5%
- inhibition at 10 µM (EKVX): < 5%
- inhibition at 10 µM (NCI-H226): < 5%
- inhibition at 10 µM (HOP-62): < 5%
- IC50 (hCA IX): 0.24 ± 0.011 µM
- inhibition at 10 µM (COLO 205): < 5%
- inhibition at 10 µM (HCT-15): < 5%
- inhibition at 10 µM (HCT-116): < 5%
- inhibition at 10 µM (KM12): < 5%
- inhibition at 10 µM (HCC-2998): < 5%
- inhibition at 10 µM (SW-620): < 5%
